Values quoted from earlier work as cited in paper PMC3086271 (Biochemical Journal, 2011).
Where two headings read alike, the source gives them in different places. One block for each molecule: values may come before it.

Tests used:
[1] = biological target: C-ACE of human somatic ACE; details: read-out: Ki for C-ACE
[2] = biological target: N-ACE of human somatic ACE; details: read-out: Ki for N-ACE
[3] = system: mean arterial blood pressure; details: spontaneous hypertensive rat, intravenous, 10 mg/kg of body weight

- Ki ([1]; C-ACE-specific phosphinic inhibitor): 3 nM
- Ki [2]: 2500 nM
Structure (SMILES): O=C(N[C@@H](Cc1ccccc1)P(=O)(O)C1CCCC1C(=O)N[C@@H](Cc1c[nH]c2ccccc12)C(=O)O)OCc1ccccc1 (some centres unmarked) [RXPA380]

- Ki ([1]; C-ACE of human somatic ACE): 2.4 nM
- Ki ([2]; N-ACE of human somatic ACE): 44 nM
Structure (SMILES): NCCCC[C@H](N[C@@H](CCc1ccccc1)C(=O)O)C(=O)N1CCC[C@H]1C(=O)O [lisinopril]

Structure (SMILES): O=C(N[C@@H](Cc1ccccc1)P(=O)(O)CC(Cc1cc(-c2ccccc2)no1)C(=O)N[C@@H](Cc1ccc(O)cc1)C(=O)O)OCc1ccccc1 (stereo partly drawn) [FII, (2S)-2-({3[hydroxyl(2-phenyl-(1R)-1-{[(benzyloxy)carbonyl]-amino}ethyl)phosphinyl]-2-[(3-phenylisoxazol-5-yl)methyl]-1-oxo-propyl}amino)-3-(4-hydroxy-phenyl) propanoic acid]
- lowering of mean arterial blood pressure as compared with controls [3]: 24±2 mmHg
